Experiments:
RARα = molecular target: T1, RARα (Homo sapiens, UniProt P10276); test: RARE-luciferase reporter assay in transfected CV-1 cells (affinity to retinoic acid receptor), RARα; type: cell-based; settings: treated 24 hours at final concentration 10^−4M, control group 1000
T1 construct: expressed in transfected cells; host or cells: CV-1 cells (ATCC)
T1 sequence (P10276 1-462): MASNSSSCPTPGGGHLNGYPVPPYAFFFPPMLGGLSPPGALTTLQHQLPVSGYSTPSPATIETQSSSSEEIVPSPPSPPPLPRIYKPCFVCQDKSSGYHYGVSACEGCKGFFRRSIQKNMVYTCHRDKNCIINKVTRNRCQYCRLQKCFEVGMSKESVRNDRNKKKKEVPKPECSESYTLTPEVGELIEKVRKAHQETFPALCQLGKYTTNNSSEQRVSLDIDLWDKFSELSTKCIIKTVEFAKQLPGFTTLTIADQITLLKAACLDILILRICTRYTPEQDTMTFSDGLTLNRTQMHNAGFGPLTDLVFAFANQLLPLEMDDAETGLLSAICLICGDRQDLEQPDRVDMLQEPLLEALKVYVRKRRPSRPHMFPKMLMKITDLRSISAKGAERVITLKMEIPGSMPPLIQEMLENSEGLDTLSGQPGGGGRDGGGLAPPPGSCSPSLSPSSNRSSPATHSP
Source text: This example illustrates affinities of hydroxamic acid derivatives obtained in Examples 1 to 55 to retinoic acid receptor, in comparison with retinol and retinoic acid.
(§1) Receptor-expression plasmid, pECE-RARα and pECE-RARγ were engineered by the prior method (Mol. Cell. Biol. 1996, 16, 1138-1149). RARE-tk-Luc, i.e. RARE reporter was obtained by inserting RARE fragment from b-RARE-tk-CAT into pGL3 luciferase basic vector. CV-1 cells were obtained from ATCC (American Type Culture Collection).
CV-1 cells were seeded into 96-well microtiter plate at 5,000 cells per well and cultured in DMEM (Dulbecco's Modified Eagle's Media) supplemented with 2.5% fetal bovine serum. 24 Hours later, the cells were transfected with 10 ng of pECE-RARα, long of pECE-RARγ, 100 ng of reporter plasmid and 100 ng of β-galactosidase-expression vector, using LipofectaminPlus (GIBCO BRL, grand island, N.Y.). 24 Hours post-transfection, the cells were treated for 24 hours with hydroxamic acid derivatives of Examples 1˜55 or retinol at a final concentration of 10^−4M or with retinoic acid at a final concentration of 10^−5M, which is 10 times lower concentration than those of the former.

procollagen type I = test: Effect on collagen biosynthesis (procollagen type I ELISA) in human fibroblasts; type: cell-based; settings: 10^−4M, 24 hours, serum-free medium, relative to control group = 100
Method: Human fibroblasts were seeded into 24-well plate at 1×10^5 cells per well and then cultured to 90% of growth.
For each supernatant, procollagen production was measured with procollagen type I ELISA kit.

RARγ = molecular target: T2, RARγ (Homo sapiens, UniProt P13631); test: RARE-luciferase reporter assay in transfected CV-1 cells (affinity to retinoic acid receptor), RARγ; type: cell-based; settings: treated 24 hours at final concentration 10^−4M, control group 5000
T2 construct: expressed in transfected cells; host or cells: CV-1 cells (ATCC)
T2 sequence (P13631 1-454): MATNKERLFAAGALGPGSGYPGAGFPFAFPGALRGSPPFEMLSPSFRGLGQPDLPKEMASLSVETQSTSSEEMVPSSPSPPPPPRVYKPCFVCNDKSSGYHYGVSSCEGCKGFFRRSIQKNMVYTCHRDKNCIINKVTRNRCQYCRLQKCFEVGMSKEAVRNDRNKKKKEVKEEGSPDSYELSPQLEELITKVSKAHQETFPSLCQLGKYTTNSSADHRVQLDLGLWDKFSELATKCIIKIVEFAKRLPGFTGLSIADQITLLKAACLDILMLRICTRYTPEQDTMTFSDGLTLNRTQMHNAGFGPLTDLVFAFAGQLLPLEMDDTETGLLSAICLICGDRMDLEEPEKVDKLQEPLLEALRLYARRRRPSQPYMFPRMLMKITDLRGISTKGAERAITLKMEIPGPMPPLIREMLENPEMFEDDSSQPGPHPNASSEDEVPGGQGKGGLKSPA
Method: as §1
CV-1 cells were seeded into 96-well microtiter plate at 5,000 cells per well and cultured in DMEM (Dulbecco's Modified Eagle's Media) supplemented with 2.5% fetal bovine serum. 24 Hours later, the cells were transfected with 10 ng of pECE-RARα, long of pECE-RARγ, 100 ng of reporter plasmid and 100 ng of β-galactosidase-expression vector, using LipofectaminPlus (GIBCO BRL, grand island, N.Y.).

collagenase = test: Inhibition of collagenase expression in human fibroblasts (ELISA kit); type: cell-based; settings: 10^−4M, 24 hours, serum-free medium, relative to control group = 100
Method: Human fibroblasts were seeded into 96-well microtiter plate at 5,000 cells per well and then cultured to 90% of growth in DMEM (Dulbecco's Modified Eagle's Media) supplemented with 2.5% fetal bovine serum. Then, the fibroblastes were cultured in serum-free DMEM for 24 hours and treated for 24 hours with 10^−4M of hydroxamic acid derivatives of Examples 1˜55, retinol or retinoic acid in serum-free medium, and then the culture fluid was collected.
(§2) For each culture fluid, collagenase production was measured with collagenase kit (commercialized by AmershamPharmacia Biotech). Firstly, the culture fluid was added to 96-well plate spread with primary collagenase antibody and then antigen-antibody reaction was performed in an incubator for 3 hours. Later, chromophore-conjugated secondary antibody was added to the 96-well plate and then reacted for 15 minutes. Then, color former was added thereto, to induce development at room temperature for 15 minutes. 1M of sulfuric acid was added to stop the reaction. […] The color density depends on the progress of the reaction. The absorbance of the yellow 96-well plate was measured at 405 nm using absorptiometer. Collagenase expression was calculated by the following equation 1. Herein, the absorbance of the culture fluid collected from the medium with no material treated was used as a control. Collagenase expression (%)=(Absorbance of test group with said material treated/Absorbance of control group with no material treated)×100 [Equation 1]
Collagenase expression was evaluated as a relative value, in consideration that the value of control group with no material treated is 100.

white guinea pigs = test: Phototoxicity test (UVA irradiation); settings: for Evaluation (phototoxicity): 1%(w/v) solution, UVA 15 J/cm^2; for Phototoxic index: 50 μl of 1%(w/v) solution, UVA 320~380 nm 15 J/cm^2, observed 24, 48 and 72 hours
elastase = test: Inhibition of elastase expression in human fibroblasts (ELISA kit); type: cell-based; settings: 10^−4M, 24 hours, serum-free medium, relative to control group = 100
Method: as §2, with “elastase” for “collagenase”, “Elastase” for “Collagenase”, “2.” for “1.”, “2]” for “1]”
Elastase expression was evaluated as a relative value, in consideration that the value of control group with no material treated is 100.

rabbits = test: Primary skin irritation test on animals (Draize P.I.I.); settings: depilated back; for P.I.I. (Primary Irritation Index): 0.5 ml of 1% solution in 1,3-butylene glycol:ethanol 7:3, observed 24 or 72 hours later; for Evaluation (skin irritation): 1% solution, according to Draize's P.I.I.

Structure (SMILES)	Luciferase activity RARα (RARα)	Collagen biosynthesis (%) (procollagen type I)	Luciferase activity RARγ (RARγ)	Collagenase expression (%) (collagenase)	Evaluation (phototoxicity) (white guinea pigs)	Phototoxic index (white guinea pigs)	Elastase expression (%) (elastase)	P.I.I. (Primary Irritation Index) (rabbits)	Evaluation (skin irritation) (rabbits)
Cc1ccc(C(=O)N(C)c2ccc(C(=O)NO)cc2)cc1 [Example 13, N-[4-(N-hydroxycarbamoyl)phenyl]-N-methyl-[4-methylphenyl]carboxyamide]	12000	117%	11200	70%	No phototoxicity (lower value than 0.5, criterion value to be estimated as no phototoxicity)	0	84%	0.500	No irritation
Cc1cccc(C(=O)N(C)c2ccc(C(=O)NO)cc2)c1 [Example 14, N-[4-(N-hydroxycarbamoyl)phenyl]-N-methyl-[3-methylphenyl]carboxyamide]	18000	115%	10300	72%	No phototoxicity (lower value than 0.5, criterion value to be estimated as no phototoxicity)	0	75%	0.231	No irritation
CCc1ccc(C(=O)N(C)c2ccc(C(=O)NO)cc2)cc1 [Example 15, N-[4-(N-hydroxycarbamoyl)phenyl]-N-methyl-[4-ethylphenyl]carboxyamide]	14500	112%	10400	79%	No phototoxicity (lower value than 0.5, criterion value to be estimated as no phototoxicity)	0	76%	0.789	No irritation
CCCc1ccc(C(=O)N(C)c2ccc(C(=O)NO)cc2)cc1 [Example 16]	12300	120%	11200	80%	No phototoxicity (lower value than 0.5, criterion value to be estimated as no phototoxicity)	0	77%	0.567	No irritation
CC(C)c1ccc(C(=O)N(C)c2ccc(C(=O)NO)cc2)cc1 [Example 17]	12400	111%	11700	81%	No phototoxicity (lower value than 0.5, criterion value to be estimated as no phototoxicity)	0	82%	0.123	No irritation
CCCCc1ccc(C(=O)N(C)c2ccc(C(=O)NO)cc2)cc1 [Example 18, N-[4-(N-hydroxycarbamoyl)phenyl]-N-methyl-[4-butylphenyl]carboxyamide]	12900	130%	11400	78%	No phototoxicity (lower value than 0.5, criterion value to be estimated as no phototoxicity)	0	79%	0.321	No irritation
Cc1ccc(C(=O)N(C)c2ccc(C(=O)NO)cc2)cc1C [Example 20, N-[4-(N-hydroxcarbamoly)phenyl]-N-methyl-[3,4-dimethylphenyl]carboxyamide]	12200	122%	12300	68%	No phototoxicity (lower value than 0.5, criterion value to be estimated as no phototoxicity)	0	78%	0.421	No irritation

From US7282522B2, “Hydroxamic acid derivatives and the method for preparing thereof” (Amorepacific Corporation, priority 2003, dated 2007)
